Molecules are shown by their SMILES.

The first test concerns the target T1, High mobility group protein B1 (Homo sapiens, UniProt P09429).
T1 sequence (P09429 whole entry): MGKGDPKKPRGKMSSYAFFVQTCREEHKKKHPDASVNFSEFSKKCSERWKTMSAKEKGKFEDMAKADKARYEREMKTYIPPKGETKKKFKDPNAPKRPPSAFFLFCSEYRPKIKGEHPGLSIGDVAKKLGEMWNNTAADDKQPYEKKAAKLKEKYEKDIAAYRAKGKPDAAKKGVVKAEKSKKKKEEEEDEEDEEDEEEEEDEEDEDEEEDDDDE
Description: Binding affinity to HMGB1 (unknown origin) assessed as dissociation constant by SPR analysis
In turn, `O=c1c(O[C@@H]2O[C@H](CO)[C@@H](O)[C@H](O)[C@H]2O)c(-c2ccc(O)c(O)c2)oc2cc(O)cc(O)c12` [ISOQUERCETIN] returned a dissociation constant Kd of 0.1 µM.

As for `COc1ccc(-c2coc3cc(O)ccc3c2=O)cc1O` [CALYCOSIN], the Kd was 0.12 µM. This Kd and that of the compound before are within 1.5-fold of each other.

For `O=C(O)c1cc(-c2ccc(F)cc2F)ccc1O` [DIFLUNISAL], the Kd amounted to 16 µM. Turning to `CO[C@H]1O[C@H](COS(=O)(=O)O)[C@@H](O[C@@H]2O[C@@H](C(=O)O)[C@@H](COC[C@H]3O[C@H](COS(=O)(=O)O)[C@@H](O[C@@H]4O[C@H](C(=O)O)[C@@H](COC[C@H]5O[C@H](COS(=O)(=O)O)[C@@H](O)[C@H](O)[C@H]5NS(=O)(=O)O)[C@H](O)[C@H]4O)[C@H](OS(=O)(=O)O)[C@H]3NS(=O)(=O)O)[C@H](O)[C@H]2OS(=O)(=O)O)[C@H](O)[C@H]1NS(=O)(=O)O`, the Kd was determined as 4.5 µM.

Consider `CC(=O)Oc1ccccc1C(=O)O` [ASPIRIN], for which binding was put at a Kd of 1 µM. Turning to `C[C@@H]1O[C@@H](OC[C@H]2O[C@@H](Oc3c(-c4ccc(O)c(O)c4)oc4cc(O)cc(O)c4c3=O)[C@H](O)[C@@H](O)[C@@H]2O)[C@H](O)[C@H](O)[C@H]1O` [RUTIN], the affinity, expressed as Kd, was 0.26 µM.

The subject of a further test is RAW264.7. As to the kind of experiment: Anti-inflammatory activity against mouse RAW264.7 cells assessed as inhibition of LPS-induced NO production.
Turning to `COc1ccc(/C=C/C(=O)C[C@H]2CC[C@]3(C)[C@H]4C(=O)C=C5[C@@H]6C[C@@](C)(C(=O)Oc7cn(C8O[C@@H](OC(C)=O)[C@@H](OC(C)=O)[C@@H](OC(C)=O)[C@@H]8OC(C)=O)nn7)CC[C@]6(C)CC[C@@]5(C)[C@]4(C)CC[C@H]3C2(C)C)cc1` (stereo not given in full), the half-inhibitory concentration (IC50) turned out to be 15.9 µM. As to `CC1(C)[C@@H](OC(=O)CCC(=O)O)CC[C@]2(C)[C@H]3C(=O)C=C4[C@@H]5C[C@@](C)(C(=O)O)CC[C@]5(C)CC[C@@]4(C)[C@]3(C)CC[C@@H]12` [CARBENOXOLONE], the IC50 was found to be 5 µM. On to `COC(=O)C(Cc1c[nH]c2ccccc12)NC(=O)[C@@]1(C)CC[C@]2(C)CC[C@]3(C)C(=CC(=O)[C@@H]4[C@@]5(C)CCC(OC(=O)CCCCC6CCSS6)C(C)(C)[C@@H]5CC[C@]43C)[C@@H]2C1` (stereo not given in full), for which the IC50 is 13.4 µM. For the compound `O=C(O[C@@H]1Cc2c(O)cc(O)cc2O[C@@H]1c1cc(O)c(O)c(O)c1)c1cc(O)c(O)c(O)c1` [EPIGALOCATECHIN GALLATE], the IC50 was < 1 µM.

For orientation: Kd means the concentration at which binding is half-saturated. Higher therefore signals a looser complex. By IC50 is commonly meant the point on the concentration scale where inhibition reaches its midpoint.

These data come from ChEMBL document CHEMBL6078690, “Targeting HMGB1 and Its Interaction with Receptors: Challenges and Future Directions” (J Med Chem, 2024).
